Data: US6479487B1, “6, 9-disubstituted 2-[trans-(4-aminocyclohexyl)amino] purines” (Aventis Pharmaceuticals Inc., priority 1998, dated 2002)
Several values for one entry are separate records, joined by “and”; a condition that tells them apart may be missing. Equal entries are not always repeated. Structures can show the parent of a compound that is named as a salt. Where two headings read alike, the source gives them in different places.

Legend:
cdk2/cyclin E = molecular target: T1, cdk2/cyclin E (Homo sapiens, UniProt P24941); experiment: Cyclin-Dependent Kinase 2 Assay (cdk2/cyclin E, GST-Rb substrate); type: biochemical; settings: recombinant cdk2/cyclin E, 10 μM ATP, 30 min at 30° C., several values in a cell = separate determinations, read-out: CDK-2 Inhibition IC50
T1 construct: made in house; host or cells: insect cells (baculovirus co-infection)
Method: Substrate: GST-Rb as described above for cdk4/cyclin D1
Assay conditions for cdk2/cyclin E were identical to those for cdk4/cyclin D1 including the substrate. The concentration of recombinant cdk2/cyclin E in the assay was 0.1 μg per 100 μl assay. Incubation was for 30 min at 30° C.

cdk4/cyclin D1 = molecular target: T2, cdk4/cyclin D1 (Homo sapiens, UniProt P11802); experiment: Cyclin-dependent Kinase 4 Assay (cdk4/cyclin D1, GST-Rb substrate); type: biochemical; settings: cdk4/cyclin D1 insect cell lysate, 10 μM ATP, 30 min at 37° C., several values = separate determinations, read-out: CDK4 Inhibition IC50
T2 construct: made in house; host or cells: Sf9 insect cells (Bac-to-Bac baculovirus, pFastBac)
T2 sequence (P11802 whole entry): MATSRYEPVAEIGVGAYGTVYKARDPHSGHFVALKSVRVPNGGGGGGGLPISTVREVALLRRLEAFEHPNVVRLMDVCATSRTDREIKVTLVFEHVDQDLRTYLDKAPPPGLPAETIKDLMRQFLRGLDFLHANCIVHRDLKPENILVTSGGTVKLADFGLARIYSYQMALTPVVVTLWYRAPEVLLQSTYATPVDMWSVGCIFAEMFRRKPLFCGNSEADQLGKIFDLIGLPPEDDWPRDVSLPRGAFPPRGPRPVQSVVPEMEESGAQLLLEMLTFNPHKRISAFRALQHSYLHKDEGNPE
T2 sequence (P24385 whole entry partner): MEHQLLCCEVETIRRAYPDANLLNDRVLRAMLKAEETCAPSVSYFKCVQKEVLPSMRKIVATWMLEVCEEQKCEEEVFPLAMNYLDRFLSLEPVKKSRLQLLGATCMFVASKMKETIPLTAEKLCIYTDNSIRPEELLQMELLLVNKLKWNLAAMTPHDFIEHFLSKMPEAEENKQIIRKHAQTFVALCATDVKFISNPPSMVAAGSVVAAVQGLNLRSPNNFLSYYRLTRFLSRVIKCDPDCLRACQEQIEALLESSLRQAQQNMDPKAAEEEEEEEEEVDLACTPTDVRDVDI
How it was run: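 IC50 against cdk4 measured by scintillation counting of bead-bound GST-Rb (0.5 μg) after filtration and four TNEN washes. Reaction was 30 min at 37 °C in HEPES pH 7.5 buffer with 10 mM MgCl2 and 1 mM EGTA. Enzyme source was 0.1 μg Sf9 lysate coinfected with cdk4 and cyclin D1.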

MDA-MB-231 = experiment: In vitro tumor cell proliferation, MDA-MB-231; type: cell-based, human; settings: sulforhodamine B or CyQUANT assay, many values given with an undefined *, read-out: In vitro Tumor Cell Proliferation (IC50, μM) Breast MDA-MB-231
How it was run: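 Proliferation quantified by SRB staining of TCA-fixed cells after 3 days of drug plus 4 days with replenished drug, following overnight attachment at 37 °C.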

MDA-MB-435 = experiment: In vitro tumor cell proliferation, MDA-MB-435; type: cell-based; settings: values given with an undefined *, read-out: In vitro Tumor Cell Proliferation (IC50, μM) Breast MDA-MB-435
How it was run: (§1)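 Cells seeded overnight at 37° C, then exposed to drug diluted in medium; at 3 days medium and drug replenished for another 4 days. Growth read by sulforhodamine B staining after TCA fixation; alternatively by CyQUANT, with plates frozen at −80° C after 3 days of drug.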

HT-29 = experiment: In vitro tumor cell proliferation, HT-29; type: cell-based, human; settings: many values given with an undefined *, read-out: In vitro Tumor Cell Proliferation (IC50, μM) Colon HT-29
How it was run: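 Growth was quantified either with CyQUANT, plates frozen at −80° C after 3 days of drug, or by sulforhodamine B staining of TCA-fixed cells after 3 days of drug plus 4 days with fresh drug. Trypan blue-excluding HT-29 cells were plated overnight at 37° C before dosing.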

Colo-205 = experiment: In vitro tumor cell proliferation, Colo-205; type: cell-based; settings: values given with an undefined *, read-out: In vitro Tumor Cell Proliferation (IC50, μM) Colon Colo-205
How it was run: as §1

A549 = experiment: In vitro tumor cell proliferation, A549; type: cell-based, human; settings: many values given with an undefined *, read-out: In vitro Tumor Cell Proliferation (IC50, μM) Lung A549
How it was run: as §1

DMS-114 = experiment: In vitro tumor cell proliferation, DMS-114; type: cell-based, human; settings: many values given with an undefined *, read-out: In vitro Tumor Cell Proliferation (IC50, μM) Lung DMS-114
How it was run: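 Human small cell lung carcinoma DMS-114 cells plated overnight, then drug-treated for 3 days, medium and drug renewed, and incubated 4 more days. Growth read by sulforhodamine B staining after TCA fixation; alternatively by CyQUANT after 3 days' drug exposure and freezing at −80 °C.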

PC-3 = experiment: In vitro tumor cell proliferation, PC-3; type: cell-based, human; settings: many values given with an undefined *, read-out: In vitro Tumor Cell Proliferation (IC50, μM) Prostate PC-3
How it was run: as §1

DU145 = experiment: In vitro tumor cell proliferation, DU145; type: cell-based, human; settings: many values given with an undefined *, read-out: In vitro Tumor Cell Proliferation (IC50, μM) Prostate DU145
How it was run: as §1

[1] = Homo sapiens, MDA-MB-231, MDA-MB-231
[2] = Homo sapiens, MDA-MB-435, MDA-MB-435
[3] = Homo sapiens, COLO 205, Colo-205

SMILES | IC50 (cdk2/cyclin E) | IC50 (cdk4/cyclin D1) | IC50 (MDA-MB-231; [1]) | IC50 (MDA-MB-435; [2]) | IC50 (MDA-MB-435; MDA-MB-435, trihydrochloride) | IC50 (HT-29; HT-29, trihydrochloride) | IC50 (HT-29; Homo sapiens, HT-29, HT-29) | IC50 (Colo-205; Colo-205, trihydrochloride) | IC50 (Colo-205; [3]) | IC50 (A549; A549, trihydrochloride) | IC50 (A549; Homo sapiens, A549, A549) | IC50 (DMS-114; DMS-114, trihydrochloride) | IC50 (DMS-114; Homo sapiens, DMS-114, DMS-114) | IC50 (PC-3; Homo sapiens, PC-3, PC-3) | IC50 (PC-3; PC-3, trihydrochloride) | IC50 (DU145; DU145, trihydrochloride) | IC50 (DU145; Homo sapiens, DU-145, DU145) | IC50 (MDA-MB-231; MDA-MB-231, trihydrochloride) | IC50 (cdk2/cyclin E; trihydrochloride) | IC50 (PC-3; PC-3)
N[C@H]1CC[C@H](Nc2nc(NC3CCN(Cc4cccc(Oc5ccccc5)c4)CC3)c3ncn(C4CCCC4)c3n2)CC1 [Example 147-ad, 2-[Trans-(4-aminocyclohexyl)amino]-6-[4-[1-(3-phenoxybenzyl)]piperidinylamino]-9-cyclopentylpurine trihydrochloride] | 280 nM and 190 nM | 3000 nM and 3200 nM | 0.64 µM | 0.87 µM | 1 µM | 0.7 µM | 0.79 µM | 0.58 µM | 0.53 µM | 0.43 µM | 0.39 µM | 0.62 µM | 0.82 µM | 0.48 µM | 0.86 µM | 0.62 µM | 0.54 µM | – | – | –
N[C@H]1CC[C@H](Nc2nc(NC3CCN(Cc4ccccc4C(F)(F)F)CC3)c3ncn(C4CCCC4)c3n2)CC1 [Example 147-b, 2-[Trans-(4-aminocyclohexyl)amino]-6-[4-[1-(2-trifluoromethylbenzyl)]piperidinylamino]-9-cyclopentylpurine trihydrochloride] | 1200 nM and 920 nM | 2400 nM and 4500 nM | 0.64 µM | 0.99 µM | 0.95 µM | 0.61 µM | 0.65 µM | 0.62 µM | 0.48 µM | 0.4 µM | 0.42 µM | 0.82 µM | 0.92 µM | 0.63 µM | 0.78 µM | 0.61 µM | 0.46 µM | 0.73 µM | – | –
COc1cc(CN2CCC(Nc3nc(N[C@H]4CC[C@H](N)CC4)nc4c3ncn4C3CCCC3)CC2)cc(OC)c1 [Example 147-c, 2-[Trans-(4-aminocyclohexyl)amino]-6-[4-[1-(3,5-dimethoxybenzyl)]piperidinylamino-9-cyclopentylpurinetrihydrochloride] | 560 nM and 270 nM and 450 nM | 670 nM and 600 nM | 0.23 µM | 0.33 µM | 0.34 µM | 0.3 µM | 0.32 µM | 0.2 µM | 0.19 µM | 0.24 µM | 0.18 µM | 0.32 µM | 0.3 µM | 0.22 µM | 0.33 µM | 0.3 µM | 0.21 µM | 0.27 µM | – | –
N[C@H]1CC[C@H](Nc2nc(NC3CCN(Cc4cc(C(F)(F)F)cc(C(F)(F)F)c4)CC3)c3ncn(C4CCCC4)c3n2)CC1 [Example 147-d, 2-[Trans-(4-aminocyclohexyl)amino]-6-[4-[1-[3,5-bis(trifluoromethyl)benzyl]]piperidinylamino]-9-cyclopentylpurine trihydrochloride] | – | 64000 nM | – | – | 0.69 µM and 0.94 µM | 0.44 µM and 0.34 µM | – | 0.38 µM and 0.52 µM | – | 0.23 µM and 0.25 µM | – | 0.34 µM and 0.36 µM | – | – | – | 0.69 µM and 0.58 µM | – | 0.47 µM and 0.42 µM | 890 nM and 530 nM and 750 nM | 0.66 µM
N[C@H]1CC[C@H](Nc2nc(NC3CCN(Cc4cccc(F)c4F)CC3)c3ncn(C4CCCC4)c3n2)CC1 [Example 147-e, 2-[Trans-(4-aminocyclohexyl)amino]-6-[4-1-(2,3-difluorobenzyl)]piperidinylamino]-9-cyclopentylpurine trihydrochloride] | 340 nM and 230 nM and 460 nM | 2700 nM and 4600 nM | 0.58 µM | 0.62 µM | 0.6 µM | 0.3 µM | 0.59 µM | 0.32 µM | 0.34 µM | 0.3 µM | 0.35 µM | 0.5 µM | 0.58 µM | 0.47 µM | 0.35 µM | 0.41 µM | 0.35 µM | 0.3 µM | – | –
N[C@H]1CC[C@H](Nc2nc(NC3CCN(Cc4cc(F)cc(F)c4)CC3)c3ncn(C4CCCC4)c3n2)CC1 [Example 147-g, 2-[Trans-(4-aminocyclohexyl)amino]-6-[4-1 1-(3.5-difluorobenzyl)]piperidinylamino]-9-cyclopentylpurine trihydrochloride] | 330 nM and 290 nM | 3500 nM and 2000 nM | 0.29 µM | 0.3 µM | 0.41 µM | 0.29 µM | – | 0.13 µM | 0.18 µM | 0.14 µM | 0.19 µM | 0.26 µM | 0.32 µM | 0.21 µM | 0.39 µM | 0.25 µM | 0.22 µM | – | – | –
